Data from patent publication US10703743B2 (priority 2010, dated 2020).
Where two headings read alike, the source gives them in different places.

What was measured:
gp120-CD4 interaction = gp120-CD4 interaction (Human immunodeficiency virus type 1 group M subtype B, UniProt P03375); experiment: biochemical; format: binding, HIV-1
MT-2 = MT-2 activity; format: cell-based; conditions: Homo sapiens, MT2
HIV-1 isolate JR-FL = experiment: viral inhibition assay, HIV-1 isolate JR-FL; format: cell-based; conditions: Human immunodeficiency virus 1, TZM-b1, read-out: IC50 JR-FL
Description: (§1) In this assay, viral inhibition was determined by HIV Tat-induced luciferase (Luc) reporter gene expression after a single round of virus infection in TZM-b1 cells according to the method of Platt, et al., J. Virol. 1998, 72, 2855-64.

HIV-1 isolate ADA = experiment: viral inhibition assay, HIV-1 isolate ADA; format: cell-based
Description: as §1

HIV-1 isolate HXBc2 = experiment: viral inhibition assay, HIV-1 isolate HXBc2; format: cell-based; conditions: Human immunodeficiency virus 1, TZM-b1, read-out: IC50 HXBc2
Description: as §1

HIV-1 isolate SF162 = experiment: viral inhibition assay, HIV-1 isolate SF162; format: cell-based; conditions: Human immunodeficiency virus 1, TZM-b1, read-out: IC50 SF162
Description: as §1

HIV-1 isolate BaL = experiment: viral inhibition assay, HIV-1 isolate BaL; format: cell-based
Description: as §1

SMILES | IC50 (gp120-CD4 interaction) [nM] | IC50 (MT-2) [nM] | other results
COc1ccc(-c2ccc(CNC(=O)COCCOCCOCCOCCn3cc(COCCOCCOCCOCCNc4ccc([N+](=O)[O-])cc4[N+](=O)[O-])nn3)o2)c2[nH]cc(C(=O)C(=O)N3CCN(C(=O)c4cccc(O)c4)CC3)c12 | 200 | 90 | –
COc1ccc(-c2ccc(CNC(=O)COCCOCCOCCOCCn3cc(COCCOCCOCCOCCNc4ccc([N+](=O)[O-])cc4[N+](=O)[O-])nn3)o2)c2[nH]cc(C(=O)C(=O)N3CCN(C(=O)c4ccccn4)CC3)c12 | 620 | 48 | –
COc1ccc(-c2ccc(CNC(=O)COCCOCCOCCOCCn3cc(COCCOCCOCCOCCNc4ccc([N+](=O)[O-])cc4[N+](=O)[O-])nn3)o2)c2[nH]cc(C(=O)C(=O)N3CCN(C(=O)c4ccc(C)cc4)CC3)c12 | 447 | 25 | –
COc1ccc(-c2ccc(CNC(=O)COCCOCCOCCOCCn3cc(COCCOCCOCCOCCNc4ccc([N+](=O)[O-])cc4[N+](=O)[O-])nn3)o2)c2[nH]cc(C(=O)C(=O)N3CCN(C(=O)c4ccc(O)cc4)CC3)c12 | 239 | 90 | –
COc1ccc(-c2ccc(CNC(=O)COCCOCCOCCOCCn3cc(COCCOCCOCCOCCNc4ccc([N+](=O)[O-])cc4[N+](=O)[O-])nn3)o2)c2[nH]cc(C(=O)C(=O)N3CCN(C(=O)c4cc(O)cc(O)c4)CC3)c12 | 745 | 230 | –
COc1ccc(-c2ccc(CNC(=O)COCCOCCOCCOCCn3cc(COCCOCCOCCOCCNc4ccc([N+](=O)[O-])cc4[N+](=O)[O-])nn3)o2)c2[nH]cc(C(=O)C(=O)N3CCN(C(=O)c4ccccc4C)CC3)c12 | 5140 | ~25000 | –
COc1ccc(-c2ccc(CNC(=O)COCCOCCOCCOCCn3cc(COCCOCCOCCOCCNc4ccc([N+](=O)[O-])cc4[N+](=O)[O-])nn3)o2)c2[nH]cc(C(=O)C(=O)N3CCN(C(=O)c4ccccc4O)CC3)c12 | 490 | 200 | –
COc1ccc(-c2ccc(CNC(=O)COCCOCCOCCOCCn3cc(COCCOCCOCCOCCNc4ccc([N+](=O)[O-])cc4[N+](=O)[O-])nn3)o2)c2[nH]cc(C(=O)C(=O)N3CCN(C(=O)c4ccc5ccccc5c4)CC3)c12 | 5240 | ~5000 | –
COc1ccc(-c2ccc(CNC(=O)COCCOCCOCCOCCn3cc(COCCOCCOCCOCCNc4ccc([N+](=O)[O-])cc4[N+](=O)[O-])nn3)o2)c2[nH]cc(C(=O)C(=O)N3CCN(C(=O)c4ccncc4)CC3)c12 | 4700 | 9300 | –
COc1ccc(-c2ccc(CNC(=O)COCCOCCOCCOCCn3cc(COCCOCCOCCOCCNc4ccc([N+](=O)[O-])cc4[N+](=O)[O-])nn3)o2)c2[nH]cc(C(=O)C(=O)N3CCN(C(=O)c4cccc(C)c4)CC3)c12 | 1360 | ~600 | –
COc1ccc(-c2ccc(CNC(=O)COCCOCCOCCOCCOCCOCCn3cc(COCCOCCOCCOCCNc4ccc([N+](=O)[O-])cc4[N+](=O)[O-])nn3)o2)c2[nH]cc(C(=O)C(=O)N3CCN(C(=O)c4ccccc4)CC3)c12 [C5-furan] | – | – | IC50 (HIV-1 isolate JR-FL): 0.72 nM; IC50 (HIV-1 isolate ADA; Human immunodeficiency virus 1, TZM-b1, read-out: IC50 ADA): 6.35 nM; IC50 (HIV-1 isolate HXBc2): 10.3 nM; IC50 (HIV-1 isolate SF162): 309 nM; IC50 (HIV-1 isolate BaL; Human immunodeficiency virus 1, BAL, TZM-b1, read-out: IC50 BaL): 34.8 nM
COc1ccc(-c2ccc(CNC(=O)COCCOCCOCCOCCn3cc(COCCOCCOCCOCCNc4ccc([N+](=O)[O-])cc4[N+](=O)[O-])nn3)o2)c2[nH]cc(C(=O)C(=O)N3CCN(C(=O)c4ccc(C(C)C)cc4)CC3)c12 | 953 | – | –
COc1ccnc2[nH]cc(C(=O)C(=O)N3CCN(C(=O)c4ccccc4)C[C@H]3C)c12 [BMS-378806, 4-benzoyl-1-(2-(4-methoxy-1H-pyrrolo(2,3-b)pyridin-3-yl)-1,2-dioxoethyl)-2-methyl-, (2R)-Piperazine, reference compound] | – | – | IC50 (HIV-1 isolate JR-FL): 2600 nM; IC50 (HIV-1 isolate ADA; Human immunodeficiency virus 1, HIV Tat-induced luciferase reporter gene expression after a single round of virus infection in TZM-b1 cells, read-out: IC50 ADA): 344 nM; IC50 (HIV-1 isolate HXBc2): 31.9 nM; IC50 (HIV-1 isolate SF162): 359 nM; IC50 BaL (HIV-1 isolate BaL; HIV Tat-induced luciferase reporter gene expression after a single round of virus infection in TZM-b1 cells): dnc
COc1ccc(-c2ccc(CNC(=O)COCCOCCOCCOCCn3cc(COCCOCCOCCOCCNc4ccc([N+](=O)[O-])cc4[N+](=O)[O-])nn3)o2)c2[nH]cc(C(=O)C(=O)N3CCN(C(=O)c4cccnc4)CC3)c12 | 3700 | 1300 | –
CCc1ccc(C(=O)N2CCN(C(=O)C(=O)c3c[nH]c4c(-c5ccc(CNC(=O)COCCOCCOCCOCCn6cc(COCCOCCOCCOCCNc7ccc([N+](=O)[O-])cc7[N+](=O)[O-])nn6)o5)ccc(OC)c34)CC2)cc1 | 469 | ~600 | –
COc1ccc(-c2ccc(CNC(=O)COCCOCCOCCOCCn3cc(COCCOCCOCCOCCNc4ccc([N+](=O)[O-])cc4[N+](=O)[O-])nn3)o2)c2[nH]cc(C(=O)C(=O)N3CCN(C(=O)c4ccc(CO)cc4)CC3)c12 | 422 | ~1000 | –
